Experimental data taken from article PMC9241644, “Evaluation of Novel Quorum Sensing Inhibitors Targeting Auto-Inducer 2 (AI-2) for the Control of Avian Pathogenic Escherichia coli Infections in Chickens” (Microbiology Spectrum, 2022).

Assays:
[1] = QSI-5 and SDM residue quantification in muscle, kidney and liver (LC-MS); format: in vivo, chickens
Experimental: The safety of QSI-5 and SDM was assessed by measuring the level of drug residue in the muscle, kidney, and liver using LC-MS (CCIC, MS&P Facility, OSU) as described before ([34]). As described above, chickens were administered with the optimized dose of QSI-5 (1 mg/L) and the therapeutic dose of SDM (495.323 mg/L) (0.05%) in drinking water daily for 7 days (starting from day 5 to day 11 of age). Tissue samples were collected individually from chickens treated with QSI-5 and SDM (five chickens per group) from experimental set up as described for floor trial at 2 DPLT, 5 DPLT, and […] (slaughter age). All samples were weighed and extracted at a 400 mg/mL ratio of tissue in the extraction solution (50:50 H2O: ACN). Samples were homogenized using a probe sonicator 20 times and centrifuged at 13,000 × g for 30 min. Sixty μL of the supernatant was transferred into glass vials and dried in a SpeedVac for 1.5 h, and then resuspended in 120 μL of 25:25:50 H2O:ACN:MeOH. Standard calibration, LC system, mass spectrometer, and drug target monitoring were performed as described above. Calibration standard curves for measuring the accumulation of QSI-5 and SDM in the kidney, liver, and muscle are shown in Fig. S6A and S6B.

[2] = based on the observations during dosing in drinking water
[3] = system: Rif^R APEC O78; experiment: Optimization of therapeutic dose of QSI-5 in drinking water, APEC-infected chickens; format: in vivo, Escherichia coli; conditions: for mortality reduction compared with PC group: PC normalized to 100%; for Mortality rate % (Nr.) / Average lesion severity, Lung / Average lesion severity, Liver / Average lesion severity, Heart / Average lesion severity, Airsac / Average APEC load, Kidney / Average APEC load, Lung / Average APEC load, Heart / Average APEC load, Liver: Table S2; for Mortality rate % (Nr.): PC 88.9 (8/9); for Average lesion severity, Lung: PC 1.11; for Average lesion severity, Liver: PC 2.11; for Average lesion severity, Heart: PC 2.78; for Average lesion severity, Airsac: PC 3.11; for Average APEC load, Kidney: PC 7.84; for Average APEC load, Lung: PC 7.93; for Average APEC load, Heart: PC 8.37; for Average APEC load, Liver: PC 8.46
Text: Chickens were monitored for clinical signs for 8 DPI. Any chickens moribund during this period were humanely euthanized and necropsied to determine bacterial load in the internal organs (liver, heart, lung, and kidney). Internal organs were aseptically collected, weighed and suspended in 1× PBS, the amount of PBS added was adjusted based on the organ size to make a suspension, the organ size and amount of PBS added were included in the final calculation of the CFU. The samples were homogenized, serially diluted 10-fold, plated on MacConkey agar (Remel, CA, USA) containing 50 μg/mL rifampicin, and incubated at 37°C for 24 h to determine the CFU/g. Pathological lesions severity in internal organs (pericarditis, perihepatitis, airsacculitis, and lung congestion) was scored as described previously ([21], [59]). At 8 DPI, the remaining chickens were humanely euthanized and necropsied, lesions were scored, and the APEC load was quantified in internal organs as described above.
One-day-old broiler chickens (n = 10/group) (Case Farms Ohio Hatchery, Strasburg, OH, USA) were used in this experiment. QSI-5 was synthesized in-house in the Fuchs laboratory (College of Pharmacy, OSU) via reductive amination reaction of commercially available 3-phenylpropionaldehyde with 1-(4-methylbenzyl) piperazine in the presence of acetic acid and sodium triacetoxyborohydride (Fig. S4). QSI-5 was administered daily in drinking water containing 0.05% DMSO at doses of 1 mg/L, 5 mg/L, 10 mg/L, and 20 mg/L for seven consecutive days starting from day 4 to day 10 of age. The amount of drinking water given daily was calculated based on the age of chickens (http://www.poultryhub.org/nutrition/nutrient-requirements/water-consumption-rates-for-chickens/). Chickens were infected with Rif^r APEC O78 (5 × 10^6 CFU/chicken) on day 5 as described above. The PC (0.05% DMSO treated and infected) and NC (non-treated and non-infected) control groups were included. The clinical signs and the daily mortality were recorded for 8 DPI. Dead chickens were necropsied, and APEC load was quantified in the internal organs as mentioned above. At 8 DPI, the remaining chickens were necropsied, lesions were scored, and the APEC load was quantified in internal organs as described above.

## Cc1ccc(CN2CCN(CCCc3ccccc3)CC2)cc1 [QSI-5]
[1]; 2 DPLT
  Drug accumulation, Kidney (ppm± SD): 0.0 ± 0.0 ppm
  Drug accumulation, Liver (ppm± SD): 0.0 ± 0.0 ppm
[1]; 2 DPLT, drinking water 7 days (QSI-5 1 mg/L, SDM 495.323 mg/L)
  Drug accumulation, Muscle (ppm± SD): 0.0 ± 0.0 ppm
[1]; 5 DPLT
  Drug accumulation, Kidney (ppm± SD): 0.0 ± 0.0 ppm
  Drug accumulation, Liver (ppm± SD): 0.0 ± 0.0 ppm
  Drug accumulation, Muscle (ppm± SD): 0.0 ± 0.0 ppm
[1]; 35 DPLT (slaughter age)
  Drug accumulation, Kidney (ppm± SD): 0.0 ± 0.0 ppm
  Drug accumulation, Liver (ppm± SD): 0.0 ± 0.0 ppm
  Drug accumulation, Muscle (ppm± SD): 0.0 ± 0.0 ppm
[2]
  aqueous solubility: good aqueous solubility
[3]; QSI-5 1 mg/L in drinking water 7 days, s/c APEC O78 5 × 10^6 CFU/chicken
  mortality reduction compared with PC group: 58%
[3]; QSI-5 5 mg/L in drinking water 7 days
  mortality reduction compared with PC group: 25%
[3]; QSI-5 10 mg/L in drinking water 7 days
  mortality reduction compared with PC group: 50%
[3]; QSI-5 20 mg/L in drinking water 7 days
  mortality reduction compared with PC group: 25%
[3]; QSI-5 1 mg/L, (3/8)
  Mortality rate % (Nr.): 37.5%
[3]; QSI-5 1 mg/L
  Average lesion severity, Lung: 0.33
  Average lesion severity, Liver: 1.25
  Average lesion severity, Heart: 1.63
  Average lesion severity, Airsac: 1.38
  Average APEC load, Kidney: 5.06 Log CFU/ g of tissue
  Average APEC load, Lung: 5.68 Log CFU/ g of tissue
  Average APEC load, Heart: 5.71 Log CFU/ g of tissue
  Average APEC load, Liver: 5.33 Log CFU/ g of tissue
[3]; QSI-5 5 mg/L, (6/9)
  Mortality rate % (Nr.): 66.6%
[3]; QSI-5 5 mg/L
  Average lesion severity, Lung: 0.38
  Average lesion severity, Liver: 1.33
  Average lesion severity, Heart: 1.89
  Average lesion severity, Airsac: 1.33
  Average APEC load, Kidney: 6.10 Log CFU/ g of tissue
  Average APEC load, Lung: 5.86 Log CFU/ g of tissue
  Average APEC load, Heart: 6.09 Log CFU/ g of tissue
  Average APEC load, Liver: 6.03 Log CFU/ g of tissue
[3]; QSI-5 10 mg/L, (4/9)
  Mortality rate % (Nr.): 44.4%
[3]; QSI-5 10 mg/L
  Average lesion severity, Lung: 0.78
  Average lesion severity, Liver: 2.11
  Average lesion severity, Heart: 2.44
  Average lesion severity, Airsac: 2.33
  Average APEC load, Kidney: 6.20 Log CFU/ g of tissue
  Average APEC load, Lung: 6.37 Log CFU/ g of tissue
  Average APEC load, Heart: 7.32 Log CFU/ g of tissue
  Average APEC load, Liver: 5.84 Log CFU/ g of tissue
[3]; QSI-5 20 mg/L, (6/9)
  Mortality rate % (Nr.): 66.6%
[3]; QSI-5 20 mg/L
  Average lesion severity, Lung: 0.44
  Average lesion severity, Liver: 1.22
  Average lesion severity, Heart: 2.11
  Average lesion severity, Airsac: 1.67
  Average APEC load, Kidney: 6.56 Log CFU/ g of tissue
  Average APEC load, Lung: 6.58 Log CFU/ g of tissue
  Average APEC load, Heart: 6.69 Log CFU/ g of tissue
  Average APEC load, Liver: 6.53 Log CFU/ g of tissue
